In brackets after ≈: the same amount, converted by molar mass. Where a SMILES comes first, the peptide text is derived from it. Bridges are numbered along the chain shown (N, C = ends). Where no end group is shown, it is not given here. [ ]: non-standard residue; d: D form. The star is where a group is joined. X1 = CC[C@H](C)CCCCC(=O)*; Dab = NCC[C@H](N)C(=O)O

For assay [1], the system named is S. aureus JE2 atpA mutant (atpA::ΦNΣ). The experiment in a line: Bacterial cell survival assay (CFU after 2 h exposure in NaPi). The assay is classed as cell-based, Staphylococcus aureus. Particulars: for difference in susceptibility / survival between atpA mutant and WT (in words): 2 h exposure at the concentrations highlighted in Fig. 1a. Here is the method: (§1) From overnight cultures of S. aureus JE2 and mutants, 10 μl was diluted into 990 μl fresh TSB medium in a falcon tube and grown for 2 h for the cells to reach early exponential phase. After 2 h the cultures were re-suspended in 10 mM sodium phosphate buffer (pH 7.4), termed NaPi (Medicago, Sweden). Cells were subsequently diluted in NaPi to approximately 5 × 10^5 CFU/ml, and combined with antimicrobial peptides and resveratrol when indicated, to a final volume of 100 µl and incubated in 96-well plates with shaking for 2 h at 37 °C. Bacteria were plated for CFU on TSA plates. Following overnight incubation at 37 °C for 24 h, viable cells were enumerated and relative cell survival was calculated as CFUwith peptide/CFUwithout peptide at 2 h post-exposure.

Assay [2] relates to atpA::ΦNΣ. The experiment in a line: Etest MIC on TSA. Particulars: 37 °C, 24 h. Format: cell-based, Staphylococcus aureus. Here is the method:
(§2) The MIC for polymyxin B was determined using Etest (bioMérieux, France) in the absence and in the presence of sub-inhibitory concentrations (0.0625x–0.25 × MIC) of resveratrol or menadione (1 µg/ml, Sigma). From overnight cultures, strains were diluted to approximately 10^8 CFU/ml and then distributed on TSA plates using a sterile cotton swab.

For assay [3], the system named is atpA^+ (allelic exchange of transposon insertion with intact atpA gene). Kind of assay: Etest MIC on TSA. Format: cell-based, Staphylococcus aureus. Particulars: 37 °C, 24 h. Here is the method: as §2
Assay [4] has as its system S. aureus JE2. Kind of assay: Etest MIC on TSA. Format: cell-based, Staphylococcus aureus. To be noted: 37 °C, 24 h. Here is the method: as §2
For assay [5], the system named is menD::ΦNΣ. Kind of assay: Etest MIC on TSA. To be noted: 37 °C, 24 h. The assay is classed as cell-based, Staphylococcus aureus. Here is the method: as §2
The subject of assay [6] is opsonized S. aureus JE2 WT in human neutrophils. Particulars: 1 h incubation, MOI 1, opsonized with 10% normal human serum; mean of at least seven replicates; without DPI 49.9%. As to the method:
(§3) Blood was collected from healthy adult volunteers and written informed consent was given. Isolation of neutrophils was performed following the procedure described in[36]. All methods were carried out in accordance with relevant guidelines and regulations. The institutional review board (IRB) of the University of Tübingen approved the study and all adult subjects provided informed consent. This study was done in accordance with the ethics committee of the medical faculty of the University of Tübingen that approved the study, Approval number 015/2014 BO2. Briefly, heparinized blood was diluted 1:1 (v/v) with PBS containing 0.5% BSA and 2 mM EDTA and layered onto a gradient of Biocoll (density, 1.077 g/ml; Biochrom) and Histopaque (density, 1.119 g/ml; Sigma). After centrifugation for 20 min at 380×g, neutrophils were collected from the Histopaque phase. Cells were subjected to a brief hypotonic shock with ultrapure-water containing 155 mM ammonium chloride, 1 mM potassium hydrogen carbonate and 0.1 mM EDTA at pH 7.4, washed, and suspended at 2.5 × 10^6 cells/ml in RPMI containing […] HSA, 2 mM glutamine, 2 mM sodium pyruvate and 10 mM HEPES.
(§4) Starter cultures of S. aureus JE2 and its respective atpA mutant were grown in TSB medium overnight.

The subject of assay [7] is opsonized S. aureus JE2 atpA mutant in human neutrophils. Particulars: 1 h incubation, MOI 1, opsonized with 10% normal human serum; mean of at least seven replicates; without DPI 39.2%. Here is the method: as §3, §4
In assay [8] the test system is S. aureus JE2. Kind of assay: Two-fold broth microdilution MIC in TSB. The assay is classed as cell-based. Particulars: Staphylococcus aureus, JE2, 24 h. Here is the method: The minimum inhibitory concentration for resveratrol was determined using a two-fold broth microdilution assay in TSB (100 µl) with an initial inoculum of approximately 5 × 10^5 cells/ml.
The test system of assay [9] is S. aureus JE2 (WT). Kind of assay: Bacterial cell survival assay (CFU after 2 h exposure in NaPi). The assay is classed as cell-based, Staphylococcus aureus. Here is the method:
as §1

Assay [10] concerns S. aureus JE2 atpB mutant (atpB::ΦNΣ). The assay is described as above. Particulars: hBD4 5 µM. The assay is classed as cell-based, Staphylococcus aureus. Here is the method:
as §1

Assay [11] has as its system S. aureus JE2 menD mutant (menD::ΦNΣ). The assay is described as above. The assay is classed as cell-based, Staphylococcus aureus. Particulars: hBD4 5 µM. As to the method:
as §1

Assay [12] deals with S. aureus JE2 atpG mutant (atpG::ΦNΣ). Described as above. To be noted: hBD4 5 µM. Format: cell-based, Staphylococcus aureus. Here is the method:
as §1

Regarding “hBD1: human β-defensin 1 (Innovagen) (DHYNCVSSGGQCLYSACPIFTKIQGTCYRGKAKCCK; ends and bridges not checked; cysteine pairing not given here; UniProt P60022 33-68, looked up)”, in assay [1], the “difference in susceptibility / survival between atpA mutant and WT (in words)” value is “no differences”.

For the molecule `CC[C@H](C)CCCCC(=O)N[C@@H](CCN)C(=O)N[C@H](C(=O)N[C@@H](CCN)C(=O)N[C@H]1CCNC(=O)[C@H]([C@@H](C)O)NC(=O)[C@H](CCN)NC(=O)[C@H](CCN)NC(=O)[C@H](CC(C)C)NC(=O)[C@@H](Cc2ccccc2)NC(=O)[C@H](CCN)NC1=O)[C@@H](C)O` [polymyxin B] (X1-[Dab]T[Dab][Dab][Dab][dF]L[Dab][Dab]T; lactam 4-C (inferred); N-terminus assumed), the MIC (usually the smallest concentration in the dilution series that meets the test's criterion for growth inhibition) is 16 µg/mL (≈ 13.3 µM) in assay [2]; 96 µg/mL (≈ 79.8 µM) in assay [3]; 128 µg/mL (≈ 106 µM) in assay [4] (TSA); 192 µg/mL in assay [5] (TSA + menadione (1 µg/ml)); greater than 1024 µg/mL in assay [5] (TSA). Moreover, the “Polymyxin B MIC” value in [4] (TSA + 0 µg/ml resveratrol) is 128 µg/mL; in assay [4] (TSA + 16 µg/ml resveratrol) it was 64 to 96 µg/mL; in [4] (TSA + 32 µg/ml resveratrol), 48 µg/mL; in assay [4] (TSA + 64 µg/ml resveratrol), 24 µg/mL.

For the molecule `c1ccc2c(c1)[I+]c1ccccc1-2` [DPI, diphenyleneiodonium], in [6], the “surviving WT cells in DPI-treated neutrophils, percentage of initial counts” value is 91.4%. In addition, the “surviving atpA cells in DPI-treated neutrophils, percentage of initial counts” value in assay [7] is listed as 74.3%.

For the molecule histatin-5, the “difference in susceptibility / survival between atpA mutant and WT (in words)” value in assay [1] is “minor increase in bactericidal activity”.

With “LL-37 (LLGDFFRKSKEKIGKEFKRIVQRIKDFLRNLVPRTES; Antibacterial peptide LL-37; UniProt P49913 134-170, looked up) [human antimicrobial peptide of the cathelicidin family (Isca Biochemicals)]”, in assay [1], the “difference in susceptibility / survival between atpA mutant and WT (in words)” value is “minor increase in bactericidal activity”.

Regarding “hBD3: human β-defensin 3 (Innovagen) (GIINTLQKYYCRVRGGRCAVLSCLPKEEQIGKCSTRGRKCCRRKK; ends and bridges not checked; cysteine pairing not given here; UniProt P81534 23-67, looked up)”, the “difference in susceptibility / survival between atpA mutant and WT (in words)” value in assay [1] is “no differences”.

In the case of `Oc1ccc(/C=C/c2cc(O)cc(O)c2)cc1` [resveratrol], the MIC in [8] was 256 µg/mL (≈ 1120 µM). Besides, the “increase in killing of WT S. aureus compared with hBD4 alone” value in assay [9] (resveratrol 32 µg/ml in combination with hBD4 5 µM) was 20 fold. The “impact on S. aureus viability” value in [9] (resveratrol alone at sub-inhibitory concentration 0.125 × MIC (32 µg/ml)) is given as “no impact”.

For “hBD4: human β-defensin 4 (Innovagen) (EFELDRICGYGTARCRKKCRSQEYRIGRCPNTYACCLRKWDESLLNRTKP; ends and bridges not checked; cysteine pairing not given here; UniProt Q8WTQ1 23-72, looked up)”, the “susceptibility of atpB mutant compared with WT” value in [10] is listed as “increased susceptibility”. For the same molecule, in assay [11], the “reduction in viable cell count of menD mutant” value is “no reduction in viable cell count”. Further, the “susceptibility of atpG mutant compared with WT” value in assay [12] is on record as “increased susceptibility”. Further, the “difference in susceptibility / survival between atpA mutant and WT (in words)” value in assay [1] is listed as “more susceptible”. In addition, the “greater reduction in viable cells of atpA mutant compared with WT” value in assay [1] (2 h exposure, concentrations of Fig. 1a (5 µM)) came to 63 fold.

(Values after article PMC7347559, “Inhibition of the ATP synthase sensitizes Staphylococcus aureus towards human antimicrobial peptides” (Scientific Reports, 2020).)
